In patent publication US8029980B2, “Identification and use of agents that modulate oncogenic transcription agent activity” (The Board of Trustees of the University of Illinois, priority 2006, dated 2011):

Columns and labels:
[1] = tested on: FoxM1 target genes Cdc25B, Survivin, and CENPB; experiment: Real-time quantitative RT-PCR of FoxM1 target gene mRNA in C3-Luc cells; type: cell-based, human; conditions: 24 hrs, vs DMSO
Method: (§1) FIG. 2. Siomycin A inhibits endogenous FoxM1 transcriptional activity. (A) C3-Luc cells without doxycycline induction, were treated with increasing dose of Siomycin A and luciferase activity was determined as described in Example 1. (B) C3-Luc cells treated either with DMSO (control) or Siomycin A were harvested 24 hrs later and the RNA was subjected to real-time RT-PCR for quantitation of mRNA levels of FoxM1 target genes Cdc25B, Survivin, and CENPB. (C) C3-Luc cells treated as indicated were harvested 24 hrs later and used for immunoblot analysis to determine the levels of survivin, and p21^WAF1. β-actin protein levels were used as loading control.
Cells treated with Siomycin A or DMSO (control) were harvested 24 hrs later and RNA was extracted using the TRIzol reagent (15596-026; Invitrogen). cDNA was prepared from this RNA using the Bio-Rad cDNA synthesis kit. The following sense (S) and antisense (AS) primer sequences and annealing temperatures (Ta) were used to amplify and measure the amount of human mRNA by real-time RT-PCR: FoxM1-S, 5′-GGAGGAAATGCCACACTTAGCG-3′ (SEQ ID NO: 1), and FoxM1-AS, 5′-TAGGACTTCTTGGGTCTTGGGGTG-3′ (SEQ ID NO: 2) (Ta, 55.7° C.); survivin-S, 5′-TCAAGGACCACCGCATCTCTA-3′ (SEQ ID NO: 3), and survivin-AS, 5′-TGAAGCAGAAGAAACACTGGGC-3′ (SEQ ID NO: 4) (Ta, 61° C.); CENPB-S, 5′-ATTCAGACAGTGAGGAAGAGGACG-3′ (SEQ ID NO: 5), and CENPB-AS, 5′-CATCAATGGGGAAGGAGGTCAG-3′ (SEQ ID NO: 6) (Ta, 58° C.); Cdc25B-S, 5′-CCCTTCCCTGTTTTCCTTTC-3′ (SEQ ID NO: 7), and Cdc25B-AS, 5′-ACACACACTCCTGCCATAGG-3′ (SEQ ID NO: 8) (Ta, 61.7° C.). These real-time RT-PCR RNA levels were normalized to human cyclophilin mRNA levels, and these primers are as follows: cyclophilin-S, 5′-GCAGACAAGGTCCCAAAGACAG-3′ (SEQ ID NO: 9), and cyclophilin-AS, 5′-CACCCTGACACATAAACCCTGG-3′ (SEQ ID NO: 10) (Ta, 55.7° C.).

[2] = tested on: HCT116 colon cancer cells; conditions: another study (ref. 27); cited from earlier work
survivin, and p21^WAF1 = experiment: Immunoblot of survivin and p21WAF1 in C3-Luc cells; type: cell-based, human; conditions: 24 hrs
Method: as §1
(§2) Immunoblotting was performed as described (18-20) with antibodies specific for p21 (556431; BD Pharmingen), survivin (sc-10811; Santa Cruz), cleaved caspase-3 (9664; Cell Signaling), and β-actin (A5441; Sigma) antibodies. Immunoblot for FoxM1 was done using the previously generated rabbit antisera (2), and phospho-FoxM1 was detected using the MPM2 monoclonal antibody (Upstate Biotechnology) which recognizes the phosphorylated protein sequence phosphoserine/phosphothreonine-proline.

[3] = tested on: human breast cancer MDA-MB-231 cell line; conditions: earlier report (ref. 26); cited from earlier work
[4] = tested on: SV40-transformed MRC-5 human fetal lung fibroblasts; experiment: Apoptosis assay (DAPI staining, caspase-3 and survivin immunoblot) in transformed fibroblasts; type: cell-based; conditions: SV40-transformed cells
Method: (§3) FIG. 4. Anti-cancer properties of Siomycin A. (A) Representative photographs from soft agar experiment as described in Example 1 are shown. (B) Number of colonies in the soft agar were quantitated and plotted in the form of bar graphs. (C) Wild type and SV40-transformed MRC-5 human fetal lung fibroblasts were treated with indicated concentrations of Siomycin A for 48 hrs. Photographs from phase contrast microscopy (top panel) and fluorescent microscopy after DAPI staining (bottom panel) are shown. (D) Apoptotic nuclei from normal and SV40-transformed MRC-5 fibroblasts treated with indicated concentrations of Siomycin A for 24 hrs were scored after DAPI staining and percentage cell death (mean±sd; n=3) is shown. (E) Wild type and SV40-transformed MRC-5 fibroblasts were treated with Siomycin A as indicated for 48 hrs and the cell lysates were used for immunoblotting and probed for levels of survivin and cleaved caspase-3.
as §2
(§4) Apoptosis was detected by DAPI (4′,6-diamidino-2-phenylindole) staining. All treatments were done in triplicates in 6-well plates and cells were stained with DAPI and visualized by fluorescent microscopy. Four random fields for each sample were photographed and at least 500 cells per field were counted to estimate apoptosis. The data is represented as mean±sd.

[5] = tested on: Liver cancer cell lines Huh7, Hep-3B and SK-Hep; experiment: FoxM1 and cleaved caspase-3 immunoblot in liver cancer cell lines; type: cell-based, human; conditions: 10 μM, 48 hrs
Method: FIG. 9. […] Liver cancer cell lines Huh7, Hep-3B and SK-Hep were treated with 10 μM Siomycin A and thiostrepton, respectively, for 48 hrs, and the cell lysates were analyzed for the levels of FoxM1 and cleaved caspase-3 by immunoblotting.
as §2
First, we treated liver cancer cell lines Huh7, Hep-3B and SK-Hep that have deleted or mutant p53 with these compounds for 48 hrs, and the cell lysates were analyzed for the levels of FoxM1 and cleaved caspase-3 by immunoblotting.

[6] = tested on: Breast cancer cell lines BT-474, MDA-MB-231, T-47D and ZR-75-1; experiment: FoxM1 and cleaved caspase-3 immunoblot in breast cancer cell lines; type: cell-based, human; conditions: 5 μM, 48 hrs
Method: FIG. 7. […] Breast cancer cell lines BT-474, MDA-MB-231, T-47D and ZR-75-1 were treated with 5 μM Siomycin and thiostrepton, respectively, for 48 hrs and the cell lysates were analyzed for the levels of FoxM1 and cleaved caspase-3 by immunoblotting.
as §2

[7] = tested on: Wild type MRC-5 human fetal lung fibroblasts; experiment: Apoptosis assay (DAPI staining, caspase-3 and survivin immunoblot) in normal fibroblasts; type: cell-based
Method: as §3, §2, §4

[8] = normal cells, 48 hrs, immunoblot

C=C(NC(=O)C(=C)NC(=O)c1csc(C2=N[C@@H]3c4csc(n4)[C@H]4NC(=O)c5csc(n5)[C@H]([C@](C)(O)[C@@H](C)O)NC(=O)[C@H]5CSC(=N5)/C(=C/C)NC(=O)[C@H]([C@@H](C)O)NC(=O)c5csc(n5)[C@]3(CC2)NC(=O)[C@H](C)NC(=O)C(=C)NC(=O)C(=C)NC(=O)[C@H](C(C)C)N[C@@H]2C=Cc3c([C@H](C)O)cc(nc3[C@H]2O)C(=O)O[C@@H]4C)n1)C(N)=O [Siomycin A]
CENPB mRNA level compared to initial level [1]: 15% | Cdc25B mRNA level relative to basal value [1]: 32% | Survivin mRNA level compared to initial level [1]: 48% | cell death mechanism in HCT116 cells [2]: induced Endoplasmic reticulum stress, and lysosomal membrane permeabilization followed by cell death | p21^WAF1 protein levels (survivin, and p21^WAF1): increase in its protein levels | protein levels of survivin (survivin, and p21^WAF1): dramatically reduced | pro-apoptotic activity in screen [3]: identified in a screen for pro-apoptotic compounds | cleavage of caspase-3 ([4]; 48 hrs, immunoblot): showed cleavage of caspase-3 | survivin levels ([4]; 48 hrs, immunoblot): effectively repress survivin levels | apoptosis / cell death ([4]; forty-eight hours after treatment): dose dependent apoptosis | FoxM1 protein expression [5]: repress FoxM1 protein expression | apoptosis (cleaved caspase-3) [5]: induce apoptosis | FoxM1 expression [6]: inhibit FoxM1 expression | apoptosis (cleaved caspase-3) [6]: induce apoptosis | cleavage of caspase-3 [7, 8]: but not normal cells showed cleavage of caspase-3 | survivin levels [7, 8]: effectively repress survivin levels | apoptosis / cell death ([7]; untransformed normal cells, forty-eight hours after treatment): did not exhibit significant cell death
